According to paper PMC4541410 (Scientific Reports, 2015):
Where two headings read alike, the source gives them in different places. Where a SMILES comes first, the peptide text is derived from it.

Columns and labels:
[1] = test system: preexisting antibodies in sera from HIV-1-infected patients; assay: Sandwich ELISA: cross-reactivity of peptides with preexisting antibodies in HIV-1-infected patients; assay type: binding, human; settings: peptide coated at 10 μg/ml, serially diluted sera, 37 °C 1 h, A450
Experimental: A sandwich ELISA was conducted to determine the cross-reactivity of the peptides with the preexisting antibodies in HIV-1-infected patients. […] The wells were then blocked with 1% gelatin, followed by addition of 50 μl of serially diluted sera from HIV-1-infected patients and incubation at 37 °C for 1 h. Then, HRP-labeled goat-anti-human IgG (Abcam, UK) and TMB were added sequentially. A450 was determined with an ELISA reader (Ultra 384, Tecan).

N36 (gp41 NHR peptide) = biological target: T1, N36 (gp41 NHR peptide) (Human immunodeficiency virus type 1 group M subtype B, UniProt P04578); assay: CD spectroscopy and thermal midpoint analysis of peptide/N36 complexes; assay type: physicochemical, HIV-1; settings: for Tm of complex with N36: CD thermal denaturation at 222 nm, 4 to 98 °C, 5 °C/min, 10 μM in PBS pH 7.2; for α-helix content of complex with N36: CD, peptide/N36 mixture 10 μM in PBS pH 7.2, 4 °C
T1 construct: gp41 NHR (“N36”, 546-581); made in house; host or cells: chemical solid-phase FMOC synthesis
Experimental: Briefly, each peptide or peptide mixture was dissolved in phosphate-buffered saline (PBS: 50 mM sodium phosphate and 150 mM NaCl, pH 7.2) at the final concentration of 10 μM and incubated at 37 °C for 30 min before cooling down to 4 °C. The CD spectra of each sample were acquired on a Jasco spectropolarimeter (Model J-815, Jasco Inc., Japan) at 4 °C using a 5 nm bandwidth, 0.1 nm resolution, 0.1 cm path length and an average time of 5.0 sec. Spectra were corrected by the subtraction of a blank corresponding to the solvent composition of each sample. Thermal midpoint analysis was used to determine the temperature at which 50% of the 6-HB formed by the CHR and NHR would decompose. It was monitored at 222 nm from 4 °C to 98 °C by applying a thermal gradient of 5 °C/min. The melting curve was smoothed and the midpoint of the thermal unfolding transition (Tm) values was calculated using Jasco software utilities as described above.

[2] = test system: HIV-1IIIB (subtype B, X4); settings: read-out: IC50, inhibition of infection by HIV-1IIIB; MT-2 cells, 100 TCID50, p24 ELISA day 4; triplicate, repeated twice
Description: (§1) Then, the culture supernatants were changed to fresh media. On the fourth day post-infection, culture supernatants were collected for detection of p24 antigen by ELISA. […] Then, the culture supernatants were changed to fresh media. On the fourth day post-infection, the culture supernatants were discarded and fresh media were complemented again. The supernatants were collected on the seventh day post-infection and tested for p24 antigen by ELISA as previously described. The percent inhibition of p24 production was calculated.

HIV-1Bal (subtype B, R5) = settings: read-out: IC50, inhibition of infection by HIV-1Bal; M7 cells, 100 TCID50, p24 ELISA day 7; triplicate, repeated twice
Description: as §1

[3] = test system: HIV-1IIIB (subtype B, X4); assay: Inhibition of HIV-1 IIIB infection by peptides in the presence of sera from HIV-1-infected patients; assay type: cell-based; settings: for Fold change of IC50, HPS-1: HPS-1 relative to N; for Fold change of IC50, HPS-2: HPS-2 relative to N; for Fold change of IC50, HPS-3: HPS-3 relative to N; for Fold change of IC50, HPS-4: HPS-4 relative to N; for Fold change of IC50, HPS-5: HPS-5 relative to N; for IC50: MT-2 cells, triplicate, mean ± SD
Experimental: Inhibition of peptides on HIV-1IIIB (subtype B, X4)infection in the presence of HIV-1-infected patients’ sera was determined as previously described. Briefly, each peptide was mixed with serially diluted serum from an HIV-1-infected patient at room temperature for 30 min. Next, the mixture of peptide/serum and HIV-1 (100 TCID50) were added to MT-2 cells (1 × 10^5/ml) in RPMI 1640 medium containing 10% FBS. After incubation at 37 °C overnight, the culture supernatants were replaced with fresh culture medium.

BCF020 (Group O) = settings: read-out: IC50 (nM), infection by primary isolate BCF020 (Group O), primary HIV-1 isolate
92UG029 (A) = settings: read-out: IC50 (nM), infection by primary isolate 92UG029 (A); primary HIV-1 isolate, subtype A
[4] = test system: T20-resistant HIV-1 variant V38A; assay type: cell-based
[5] = test system: T20-resistant HIV-1 variant N42T/N43K; assay type: cell-based
92TH009 (A/E) = settings: read-out: IC50 (nM), infection by primary isolate 92TH009 (A/E); primary HIV-1 isolate, subtype A/E
[6] = test system: T20-resistant HIV-1 variant V38E/N42S; assay type: cell-based
92UG024 (D) = assay type: cell-based; settings: primary HIV-1 isolate, subtype D; read-out: IC50 (nM), infection by primary isolate 92UG024 (D)
93BR020 (F) = assay type: cell-based; settings: primary HIV-1 isolate, subtype F; read-out: IC50 (nM), infection by primary isolate 93BR020 (F)
94US_33931N (B) = settings: read-out: IC50 (nM), infection by primary isolate 94US_33931N (B); primary HIV-1 isolate, subtype B
NP1525 (A/E) = assay type: cell-based; settings: primary HIV-1 isolate, subtype A/E; read-out: IC50 (nM), infection by primary isolate NP1525 (A/E)
[7] = test system: T20-resistant HIV-1 variant V38A/N42T; assay type: cell-based
93IN101 (C) = settings: read-out: IC50 (nM), infection by primary isolate 93IN101 (C); primary HIV-1 isolate, subtype C
in vivo = settings: male, Sprague-Dawley (SD), rat, plasma, iv, 1 mg/kg
Experimental: (§2) Four male SD rats weighing approximately 200 g each were obtained from the Shanghai Medical School Animal Center and were used for the half-life assay. […] After injection, blood samples were acquired from rat orbit at several time points (8 and 30 min and 1.5, 3, 6, 9, 12 and 24 h after peptide injection) and placed in clean tubes. […] Then, HRP-labeled rabbit-anti-mouse IgG (Sigma, USA) and TMB were added in order. Absorbance at 450 nm was determined by an ELISA reader (Ultra 384, Tecan). The standard peptide parameters were obtained first. Then, the plasma peptide concentrations were determined as a function of time and the half-life was calculated by using PK Solver for Microsoft Excel to obtain pharmacokinetic parameters.

[8] = test system: T20-resistant HIV-1 variant V38A/N42D; assay type: cell-based
[9] = intravenous 1 mg/kg, male SD rats, n = 2; plasma by sandwich ELISA; PK Solver
Experimental: as §2

[10] = in presence of serum of HIV-1-infected patient HPS-1, read-out: IC50 (nM), HIV-1 IIIB infection, HPS-1
[11] = in presence of serum of HIV-1-infected patient HPS-2, read-out: IC50 (nM), HIV-1 IIIB infection, HPS-2
[12] = in presence of serum of HIV-1-infected patient HPS-3, read-out: IC50 (nM), HIV-1 IIIB infection, HPS-3
[13] = in presence of serum of HIV-1-infected patient HPS-4, read-out: IC50 (nM), HIV-1 IIIB infection, HPS-4
[14] = in presence of serum of HIV-1-infected patient HPS-5, read-out: IC50 (nM), HIV-1 IIIB infection, HPS-5

T1 sequence (P04578 546-581): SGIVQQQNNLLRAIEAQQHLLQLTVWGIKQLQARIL

Row | Molecule | reactivity with antibodies in sera from five HIV-1-infected patients [1] | Tm of complex with N36 (N36 (gp41 NHR peptide)) | α-helix content of complex with N36 (N36 (gp41 NHR peptide)) [%] | IC50 [2] [nM] | IC50 (HIV-1Bal (subtype B, R5)) [nM] | Fold change of IC50, HPS-1 [3] | Fold change of IC50, HPS-2 [3] | Fold change of IC50, HPS-3 [3] | Fold change of IC50, HPS-4 [3] | Fold change of IC50, HPS-5 [3] | IC50 [3, 10] [nM] | IC50 [3, 11] [nM] | IC50 [3, 12] [nM] | IC50 [3, 13] [nM] | IC50 [3, 14] [nM] | IC50 (BCF020 (Group O)) [nM] | IC50 (92UG029 (A)) [nM] | IC50 [4] [nM] | IC50 [5] [nM] | IC50 (92TH009 (A/E)) [nM] | further results
1 | CC[C@H](C)[C@H](NC(=O)[C@H](CO)NC(=O)[C@H](CCC(=O)O)NC(=O)[C@H](CCC(=O)O)NC(=O)[C@H](CCC(N)=O)NC(=O)[C@H](CCCCN)NC(=O)[C@H](CCCCN)NC(=O)[C@@H](NC(=O)[C@H](CCC(N)=O)NC(=O)[C@H](CCC(=O)O)NC(=O)[C@H](CCC(=O)O)NC(=O)[C@@H](NC(=O)[C@H](CCCCN)NC(=O)[C@H](CCCCN)NC(=O)[C@@H](NC(=O)[C@H](CC(C)C)NC(=O)[C@H](CCC(=O)O)NC(=O)[C@H](CCC(=O)O)NC(=O)[C@H](CO)NC(=O)[C@H](CCCCN)NC(=O)[C@H](CCCCN)NC(=O)[C@@H](NC(=O)[C@H](CC(C)C)NC(=O)[C@H](CCC(=O)O)NC(=O)[C@H](CCC(=O)O)NC(=O)[C@@H](NC(=O)[C@H](CCC(=O)O)NC(=O)[C@H](CCCNC(=N)N)NC(=O)[C@H](CC(=O)O)NC(=O)[C@H](Cc1c[nH]c2ccccc12)NC(=O)[C@H](CCC(=O)O)NC(=O)[C@H](CCSC)NC(=O)[C@H](Cc1c[nH]c2ccccc12)NC(C)=O)[C@@H](C)CC)[C@@H](C)CC)[C@@H](C)CC)[C@@H](C)CC)[C@@H](C)CC)C(=O)N[C@@H](CCCCN)C(=O)N[C@@H](CCCCN)C(N)=O [AP1] (Ac-WMEWDREIEELIKKSEELIKKIEEQIKKQEESIKK-NH2) | none of the three artificial peptides AP1, AP2 and AP3 was recognized | 59.6 ^oC | 65.36 | 86.2 | 396 | 0.8 | 0.6 | 1.5 | 0.8 | 0.6 | 87.4 ± 54.8 | 70.1 ± 44.9 | 165 ± 26.6 | 89.5 ± 20.6 | 68.5 ± 22.6 | – | – | – | – | – | –
2 | CC[C@H](C)[C@H](NC(=O)[C@H](CO)NC(=O)[C@H](CCC(=O)O)NC(=O)[C@H](CCC(=O)O)NC(=O)[C@H](CCC(N)=O)NC(=O)[C@H](CCCCN)NC(=O)[C@H](CCCCN)NC(=O)[C@@H](NC(=O)[C@H](CCC(N)=O)NC(=O)[C@H](CCC(=O)O)NC(=O)[C@H](CCC(=O)O)NC(=O)[C@@H](NC(=O)[C@H](CCCCN)NC(=O)[C@H](CCCCN)NC(=O)[C@@H](NC(=O)[C@H](CC(C)C)NC(=O)[C@H](CCC(=O)O)NC(=O)[C@H](CCC(=O)O)NC(=O)[C@H](CO)NC(=O)[C@H](CCCCN)NC(=O)[C@H](CCCCN)NC(=O)[C@@H](NC(=O)[C@H](CC(C)C)NC(=O)[C@H](CCC(=O)O)NC(=O)[C@H](CCC(=O)O)NC(=O)[C@@H](NC(=O)[C@H](CCCCN)NC(=O)[C@H](CCCCN)NC(=O)[C@H](CC(=O)O)NC(=O)[C@H](Cc1c[nH]c2ccccc12)NC(=O)[C@H](CCC(=O)O)NC(=O)[C@H](CCC(=O)O)NC(=O)[C@H](Cc1c[nH]c2ccccc12)NC(C)=O)[C@@H](C)CC)[C@@H](C)CC)[C@@H](C)CC)[C@@H](C)CC)[C@@H](C)CC)C(=O)N[C@@H](CCCCN)C(=O)N[C@@H](CCCCN)C(N)=O [AP2] (Ac-WEEWDKKIEELIKKSEELIKKIEEQIKKQEESIKK-NH2) | none of the three artificial peptides AP1, AP2 and AP3 was recognized | 82.3 ^oC | 69.51 | 23.1 | 50 | 0.5 | 0.7 | 1.7 | 0.8 | 1.5 | 24.3 ± 10.2 | 30.3 ± 4.2 | 78.3 ± 8.6 | 35.1 ± 2.3 | 69.3 ± 3.2 | 47.1 ± 2.1 | 39.9 ± 4.2 | 41.4 ± 8.65 | 72.7 ± 7.53 | 50 ± 4.5 | IC50 [6]: 87.4 ± 5.26 nM; IC50 (92UG024 (D)): 34.5 ± 2.3 nM; IC50 (93BR020 (F)): 42.7 ± 1.4 nM; IC50 (94US_33931N (B)): 38 ± 12.5 nM; IC50 (NP1525 (A/E)): 65.6 ± 10.9 nM; IC50 [7]: 262 ± 5.63 nM; IC50 (93IN101 (C)): 35.6 ± 0.9 nM; MRT (in vivo): 7.57 h; half-life (in vivo): 5.25 h; IC50 [8]: 63.5 ± 6.37 nM; Cmax [9]: 667.43 µg/mL
3 | Enfuvirtide | – | – | – | 13.6 | 30.2 | – | – | – | – | – | 128 ± 20.5 | 134 ± 44.9 | 157 ± 22 | > 200 | > 200 | 30.8 ± 0.5 | 8.6 ± 1.7 | 943 ± 46.4 | > 2000 | 14.2 ± 12.4 | IC50 [6]: > 2000 nM; IC50 (92UG024 (D)): 15.5 ± 3.5 nM; IC50 (93BR020 (F)): 24.5 ± 3.6 nM; IC50 (94US_33931N (B)): 16.2 ± 2.8 nM; IC50 (NP1525 (A/E)): 29.7 ± 6.9 nM; IC50 [7]: > 5000 nM; IC50 (93IN101 (C)): 16.8 ± 6.5 nM; IC50 [8]: > 2000 nM
